Assay: xn = mol fraction of the nth substance listed

CC(=O)CC(C)(C)O + CC(C)O
viscosity [mPa·s], 100 kPa
Details	x2 = 0.1	x2 = 0.2	x2 = 0.3	x2 = 0.4	x2 = 0.5	x2 = 0.6	x2 = 0.7	x2 = 0.8	x2 = 0.9
303.15 K	2.39	2.29	2.19	2.09	2	1.91	1.84	1.78	1.75
323.15 K	1.5	1.43	1.36	1.29	1.23	1.18	1.12	1.08	1.04

CCCCC + CC(C)O
298.15 K, 101 kPa
Details	viscosity [mPa·s]
x2 = 0.1128	0.262
x2 = 0.2204	0.281
x2 = 0.3273	0.323
x2 = 0.4232	0.385
x2 = 0.516	0.466
x2 = 0.6004	0.577
x2 = 0.6858	0.71
x2 = 0.7699	0.966
x2 = 0.8524	1.272
x2 = 0.9438	1.702

CCCCCCCCCC + CC(C)O
viscosity [mPa·s]
Details	293.15 K	298.15 K	303.15 K	308.15 K
101 kPa, x2 = 0.0571	–	0.839	–	0.757
101 kPa, x2 = 0.1237	–	0.837	–	0.74
101 kPa, x2 = 0.1714	–	0.838	–	0.726
101 kPa, x2 = 0.2709	–	0.851	–	0.735
101 kPa, x2 = 0.3525	–	0.867	–	0.746
101 kPa, x2 = 0.4184	–	0.888	–	0.762
101 kPa, x2 = 0.5253	–	0.945	–	0.8
101 kPa, x2 = 0.5786	–	0.986	–	0.824
101 kPa, x2 = 0.6537	–	1.059	–	0.882
101 kPa, x2 = 0.6971	–	1.113	–	0.909
101 kPa, x2 = 0.7895	–	1.261	–	1.013
101 kPa, x2 = 0.8717	–	1.457	–	1.152
101 kPa, x2 = 0.9099	–	1.583	–	1.246
101 kPa, x2 = 0.9453	–	1.727	–	1.35
101.32 kPa, x2 = 0.0412	0.896	0.831	0.773	–
101.32 kPa, x2 = 0.0998	0.893	0.827	0.768	–
101.32 kPa, x2 = 0.161	0.904	0.847	0.785	–
101.32 kPa, x2 = 0.2938	0.916	0.845	0.777	–
101.32 kPa, x2 = 0.3954	0.957	0.878	0.809	–
101.32 kPa, x2 = 0.4988	1.006	0.916	0.836	–
101.32 kPa, x2 = 0.5943	1.095	0.986	0.893	–
101.32 kPa, x2 = 0.7019	1.241	1.11	0.994	–
101.32 kPa, x2 = 0.8012	1.436	1.273	1.127	–
101.32 kPa, x2 = 0.9017	1.759	1.538	1.348	–
101.32 kPa, x2 = 0.951	2.014	1.742	1.515	–
